Measurements: patent US8796289B2 (AbbVie Inc., priority 2011, dated 2014)

target: GST-tagged-Wee1 kinase (Homo sapiens, UniProt P30291); assay: Wee1 time-resolved fluorescence equilibrium binding assay (displacement of Oregon Green-labeled ATP-competitive kinase probe); conditions: not given
Description: Wee1 kinase was assayed using a time-resolved fluorescence equilibrium binding assay monitoring displacement of a rapidly reversible Oregon Green-labeled ATP-competitive kinase probe (N-(2-(2-(2-(4-(4-(5-chloro-4-(2-(1-hydroxycyclobutyl)thiazol-5-yl)-1H-pyrrolo[2,3-b]pyridin-2-yl)phenyl)piperazin-1-yl)ethoxy)ethoxy)ethyl)-2′,7′-difluoro-3′,6′-dihydroxy-3-oxo-3H-spiro[isobenzofuran-1,9′-xanthene]-5-carboxamide) by competitive Wee1 inhibitors.

GST-tagged-Wee1 kinase, sequence (P30291 whole entry): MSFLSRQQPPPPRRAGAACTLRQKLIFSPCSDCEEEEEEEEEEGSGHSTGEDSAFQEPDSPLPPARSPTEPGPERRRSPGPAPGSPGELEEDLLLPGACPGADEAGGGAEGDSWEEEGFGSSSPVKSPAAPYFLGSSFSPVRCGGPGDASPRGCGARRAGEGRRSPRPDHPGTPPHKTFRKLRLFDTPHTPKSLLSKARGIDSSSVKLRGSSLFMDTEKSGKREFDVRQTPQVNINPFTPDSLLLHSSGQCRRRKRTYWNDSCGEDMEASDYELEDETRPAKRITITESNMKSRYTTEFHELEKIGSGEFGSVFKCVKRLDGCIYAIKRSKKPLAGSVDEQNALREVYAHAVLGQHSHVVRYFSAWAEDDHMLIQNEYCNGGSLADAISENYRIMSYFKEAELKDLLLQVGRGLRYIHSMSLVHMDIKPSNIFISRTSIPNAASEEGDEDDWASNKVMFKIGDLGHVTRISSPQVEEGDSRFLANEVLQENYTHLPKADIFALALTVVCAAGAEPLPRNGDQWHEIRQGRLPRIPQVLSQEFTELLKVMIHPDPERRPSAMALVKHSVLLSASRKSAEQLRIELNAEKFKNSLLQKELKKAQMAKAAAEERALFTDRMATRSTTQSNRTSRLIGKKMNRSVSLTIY

Row | SMILES | Ki [nM]
1 | C=CCn1nc(-c2ccccc2)c2nc(Nc3ccc(N4CCN(C(C)C)CC4)c(OC)c3)ncc2c1=O [Example 114, 6-allyl-2-{[4-(4-isopropylpiperazin-1-yl)-3-methoxyphenyl]amino}-8-phenylpyrimido[4,5-d]pyridazin-5(6H)-one] | 3
2 | CN1CCN(c2ccc(Nc3ncc4c(=O)n(-c5cnccc5O)nc(-c5ccccn5)c4n3)cc2)CC1 [Example 310, 6-(4-hydroxypyridin-3-yl)-2-{[4-(4-methylpiperazin-1-yl)phenyl]amino}-8-(pyridin-2-yl)pyrimido[4,5-d]pyridazin-5(6H)-one] | 3.6
3 | CN1CCN(c2ccc(Nc3ncc4c(=O)n(-c5ccccc5)nc(-c5cccc(F)c5)c4n3)cc2)CC1 [Example 82, 8-(3-fluorophenyl)-2-{[4-(4-methylpiperazin-1-yl)phenyl]amino}-6-phenylpyrimido[4,5-d]pyridazin-5(6H)-one] | 9
4 | CN1CCN(c2ccc(Nc3ncc4c(=O)n(-c5ccccc5F)nc(C5CC(F)(F)C5)c4n3)cc2)CC1 [Example 198, 8-(3,3-difluorocyclobutyl)-6-(2-fluorophenyl)-2-{[4-(4-methylpiperazin-1-yl)phenyl]amino}pyrimido[4,5-d]pyridazin-5(6H)-one] | 25
5 | C=CCn1nc(-c2ccccc2)c2nc(Nc3ccc4c(c3)CN(C)CC4)ncc2c1=O [Example 230, 2-[(2-methyl-1,2,3,4-tetrahydroisoquinolin-7-yl)amino]-8-phenyl-6-(prop-2-en-1-yl)pyrimido[4,5-d]pyridazin-5(6H)-one] | 5
6 | COc1ccccc1-n1nc(C2CCCC2)c2nc(Nc3ccc(N4CCN(C)CC4)cc3)ncc2c1=O [Example 57, 8-cyclopentyl-6-(2-methoxyphenyl)-2-{[4-(4-methylpiperazin-1-yl)phenyl]amino}pyrimido[4,5-d]pyridazin-5(6H)-one] | 7
7 | CN1Cc2cc(Nc3ncc4c(=O)n(-c5ccccc5Cl)nc(-c5ccccc5)c4n3)ccc2C2(CC2)C1 [Example 53, 6-(2-chlorophenyl)-2-[(2′-methyl-2′,3′-dihydro-1′H-spiro[cyclopropane-1,4′-isoquinolin]-7′-yl)amino]-8-phenylpyrimido[4,5-d]pyridazin-5(6H)-one] | 0.1
8 | CN1CCN(c2ccc(Nc3ncc4c(=O)n(-c5ccccc5)nc(-c5ccccc5F)c4n3)cc2)CC1 [Example 37, 8-(2-fluorophenyl)-2-{[4-(4-methylpiperazin-1-yl)phenyl]amino}-6-phenylpyrimido[4,5-d]pyridazin-5(6H)-one] | 18
9 | Cc1cc(Nc2ncc3c(=O)n(-c4ccccc4Cl)nc(-c4ccccc4)c3n2)ccc1N1CCN(C(C)C)CC1 [Example 205, 6-(2-chlorophenyl)-2-({3-methyl-4-[4-(propan-2-yl)piperazin-1-yl]phenyl}amino)-8-phenylpyrimido[4,5-d]pyridazin-5(6H)-one] | 0.2
10 | O=c1c2cnc(Nc3ccc(N4CCNCC4)cc3)nc2c(-c2nccs2)nn1-c1ncccc1Cl [Example 347, 6-(3-chloropyridin-2-yl)-2-{[4-(piperazin-1-yl)phenyl]amino}-8-(1,3-thiazol-2-yl)pyrimido[4,5-d]pyridazin-5(6H)-one] | 6.5
11 | Cc1ccccc1-n1nc(-c2cccs2)c2nc(Nc3ccc4c(c3)CN(C)CC43CC3)ncc2c1=O [Example 130, 2-[(2′-methyl-2′,3′-dihydro-1′H-spiro[cyclopropane-1,4′-isoquinolin]-7′-yl)amino]-6-(2-methylphenyl)-8-(2-thienyl)pyrimido[4,5-d]pyridazin-5(6H)-one] | 0.4
12 | CCCc1nn(CC(F)(F)F)c(=O)c2cnc(Nc3ccc(N4CCN(C)CC4)cc3)nc12 [Example 23, 2-{[4-(4-methylpiperazin-1-yl)phenyl]amino}-8-propyl-6-(2,2,2-trifluoroethyl)pyrimido[4,5-d]pyridazin-5(6H)-one] | 370

Next, values leading:

Row | Ki [nM] | SMILES
13 | 0.2 | Cc1cc(Nc2ncc3c(=O)n(-c4c(Cl)cccc4Cl)nc(-c4ccccn4)c3n2)ccc1N1CCCN(C)CC1 [Example 223]
14 | 1 | CC(=O)N1Cc2cc(Nc3ncc4c(=O)n(-c5c(Cl)cccc5Cl)nc(C(F)F)c4n3)ccc2C2(CC2)C1 [Example 415, 2-[(2′-acetyl-2′,3′-dihydro-1′H-spiro[cyclopropane-1,4′-isoquinolin]-7′-yl)amino]-6-(2,6-dichlorophenyl)-8-(difluoromethyl)pyrimido[4,5-d]pyridazin-5(6H)-one]
15 | 0.04 | CC(=O)c1cccc(-c2nn(-c3c(Cl)cccc3Cl)c(=O)c3cnc(Nc4ccc(N5CCN(C)CC5)cc4)nc23)c1 [Example 185, 8-(3-acetylphenyl)-6-(2,6-dichlorophenyl)-2-{[4-(4-methylpiperazin-1-yl)phenyl]amino}pyrimido[4,5-d]pyridazin-5(6H)-one]
16 | 0.18 | Cc1nn(-c2c(Cl)cccc2Cl)c(=O)c2cnc(Nc3ccc4c(c3)CNCC4(C)C)nc12 [Example 438, 6-(2,6-dichlorophenyl)-2-[(4,4-dimethyl-1,2,3,4-tetrahydroisoquinolin-7-yl)amino]-8-methylpyrimido[4,5-d]pyridazin-5(6H)-one]
17 | 6.9 | CN1CCN(c2ccc(Nc3ncc4c(=O)n(-c5ncccc5Cl)nc(-c5cn(C)cn5)c4n3)cc2)CC1 [Example 343, 6-(3-chloropyridin-2-yl)-8-(1-methyl-1H-imidazol-4-yl)-2-{[4-(4-methylpiperazin-1-yl)phenyl]amino}pyrimido[4,5-d]pyridazin-5(6H)-one]
18 | 0.41 | O=c1c2cnc(Nc3ccc4c(c3)CNCC4)nc2c(C2CC2)nn1-c1c(Cl)cccc1Cl [Example 390, 8-cyclopropyl-6-(2,6-dichlorophenyl)-2-(1,2,3,4-tetrahydroisoquinolin-7-ylamino)pyrimido[4,5-d]pyridazin-5(6H)-one]
19 | 0.38 | O=c1c2cnc(Nc3ccc4c(c3)CCNC4)nc2c(C(F)F)nn1-c1c(Cl)cccc1Cl [Example 473, 6-(2,6-dichlorophenyl)-8-(difluoromethyl)-2-(1,2,3,4-tetrahydroisoquinolin-6-ylamino)pyrimido[4,5-d]pyridazin-5(6H)-one]
20 | 1 | CN1CCN(c2ccc(Nc3ncc4c(=O)n(-c5ccccc5Cl)nc(-c5ccccc5F)c4n3)cc2)CC1 [Example 40, 6-(2-chlorophenyl)-8-(2-fluorophenyl)-2-{[4-(4-methylpiperazin-1-yl)phenyl]amino}pyrimido[4,5-d]pyridazin-5(6H)-one]
21 | 16 | CN1CCN(c2ccc(Nc3ncc4c(=O)n(-c5c(Cl)cccc5Cl)nc(C5CCNCC5)c4n3)cc2)CC1 [Example 148, 6-(2,6-dichlorophenyl)-2-{[4-(4-methylpiperazin-1-yl)phenyl]amino}-8-(piperidin-4-yl)pyrimido[4,5-d]pyridazin-5(6H)-one]
22 | 0.34 | CCc1nn(-c2c(Cl)cccc2Cl)c(=O)c2cnc(Nc3ccc4c(c3)CCNC4(C)C)nc12 [Example 466, 6-(2,6-dichlorophenyl)-2-[(1,1-dimethyl-1,2,3,4-tetrahydroisoquinolin-6-yl)amino]-8-ethylpyrimido[4,5-d]pyridazin-5(6H)-one]
23 | 0.4 | O=c1c2cnc(Nc3ccc(C4CCNC4)cc3)nc2c(C(F)(F)F)nn1-c1c(Cl)cccc1Cl (stereo not shown) [Example 422, 6-(2,6-dichlorophenyl)-2-{[4-(pyrrolidin-3-yl)phenyl]amino}-8-(trifluoromethyl)pyrimido[4,5-d]pyridazin-5(6H)-one]
24 | 0.3 | Cc1cccc(Cl)c1-n1nc(C)c2nc(Nc3ccc(NC4CCNCC4)cc3)ncc2c1=O [Example 524, 6-(2-chloro-6-methylphenyl)-8-methyl-2-{[4-(piperidin-4-ylamino)phenyl]amino}pyrimido[4,5-d]pyridazin-5(6H)-one]
25 | 0.2 | O=c1c2cnc(Nc3ccc(N4CCNCC4)cc3)nc2c(-c2cccc(CN3CCCCC3)c2)nn1-c1c(Cl)cccc1Cl [Example 237, 6-(2,6-dichlorophenyl)-2-{[4-(piperazin-1-yl)phenyl]amino}-8-[3-(piperidin-1-ylmethyl)phenyl]pyrimido[4,5-d]pyridazin-5(6H)-one]
26 | 0.67 | CC(=O)N1CCN(c2ccc(Nc3ncc4c(=O)n(-c5c(Cl)cccc5Cl)nc(-c5ccccn5)c4n3)cc2)CC1 [Example 374, 2-{[4-(4-acetylpiperazin-1-yl)phenyl]amino}-6-(2,6-dichlorophenyl)-8-(pyridin-2-yl)pyrimido[4,5-d]pyridazin-5(6H)-one]
27 | 0.36 | Cc1nn(-c2c(Cl)cccc2Cl)c(=O)c2cnc(Nc3cccc(OC4CCN(C)CC4)c3)nc12 [Example 516, 6-(2,6-dichlorophenyl)-8-methyl-2-({3-[(1-methylpiperidin-4-yl)oxy]phenyl}amino)pyrimido[4,5-d]pyridazin-5(6H)-one]
28 | 0.13 | CN1CCCC(c2ccc(Nc3ncc4c(=O)n(-c5c(Cl)cccc5Cl)nc(C(F)F)c4n3)cc2)C1 (stereo not shown) [Example 486, 6-(2,6-dichlorophenyl)-8-(difluoromethyl)-2-{[4-(1-methylpiperidin-3-yl)phenyl]amino}pyrimido[4,5-d]pyridazin-5(6H)-one]
29 | 0.2 | CN1CCN(c2ccc(Nc3ncc4c(=O)n(-c5ccccc5Cl)nc(-c5cccc(F)c5)c4n3)cc2)CC1 [Example 83, 6-(2-chlorophenyl)-8-(3-fluorophenyl)-2-{[4-(4-methylpiperazin-1-yl)phenyl]amino}pyrimido[4,5-d]pyridazin-5(6H)-one]
30 | 0.25 | CNC(=O)c1ccc(-c2nn(-c3c(Cl)cccc3Cl)c(=O)c3cnc(Nc4ccc(N5CCN(C)CC5)cc4)nc23)cc1 [Example 293, 4-[6-(2,6-dichlorophenyl)-2-{[4-(4-methylpiperazin-1-yl)phenyl]amino}-5-oxo-5,6-dihydropyrimido[4,5-d]pyridazin-8-yl]-N-methylbenzamide]

same assay, conditions: read-out: Wee-1 inhibition Ki

Row | Ki [nM] | SMILES
31 | 1 | Cc1nn(-c2c(Cl)cccc2Cl)c(=O)c2cnc(Nc3ccc4c(c3)CNCC4)nc12 [Example 395]
